Experimental data as given in ChEMBL document CHEMBL1156808, “Synthesis and characterization of iodinated tetrahydroquinolines targeting the G protein-coupled estrogen receptor GPR30” (J Med Chem, 2010).

Tested on: Muscle tissue
Experiment: Biodistribution in muscle of iv dosed NCr nu/nu mouse xenografted with GPR30 overexpressing human Hec50 cells after 2 hrs
Format: ADME, organism-based
Conditions: in vivo

- Drug uptake: 0.52 % ID/g
Compound: O=C(NCCc1ccc2c(c1)[C@@H]1C=CC[C@@H]1[C@H](c1cc3c(cc1Br)OCO3)N2)Nc1cccc([125I])c1
